# Experimental data as given in patent publication US7045343B2, “Sterilization indicator test packs” (3M Innovative Properties Company, priority 1998, dated 2006).
# Legend:
# [1] = tested on: enzyme associated with Bacillus stearothermophilus spores; experiment: Rapid enzyme fluorescence readout of indicators after hydrogen peroxide plasma sterilization; assay type: biochemical; settings: for FLUORESCENCE - PERCENT POSITIVE 1 HR / FLUORESCENCE - PERCENT POSITIVE 2 HR / FLUORESCENCE - PERCENT POSITIVE 3 HR / FLUORESCENCE - PERCENT POSITIVE 4 HR / FLUORESCENCE - PERCENT POSITIVE 5 HR: 1–22 min diffusion;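 on FLUORESCENCE - PERCENT POSITIVE 5 HR: percent of growth-positive indicators that were also fluorescence-positive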
# Experimental: (§1) Sterilization indicators for Examples 6–9 were prepared as described above with the exception that closure member 22 of the sterilization indicator was constructed of TYVEK™ high-density polyethylene fiber material, commercially available from E.I. du Pont de Nemours and Co., Wilmington, Del.
# (§2) Sterilization indicators were made as described above with spores that had been coated with each of the chemicals and concentrations listed in Table 6. The indicators were placed in instrument trays and exposed to a hydrogen peroxide plasma sterilization procedure at 45–55° C. in a STERRAD™ 100SI GMP Sterilizer, obtained from Advanced Sterilization Products Co., Irvine, Calif. During the sterilization procedure a vacuum was drawn in the sterilization chamber for 5–6 minutes until the pressure was reduced to 300 mTorr. A 1.8 ml aliquot of an aqueous solution of 58–60% hydrogen peroxide was then injected into the sterilization chamber over a period of about 6 minutes, yielding an empty chamber concentration of […] hydrogen peroxide, and hydrogen peroxide vapor was allowed to diffuse throughout the chamber for 1–22 minutes at 6–10 Torr. A vacuum was then drawn, reducing the pressure to 500 mTorr and removing all detectable hydrogen peroxide vapor from the chamber.
# (§3) After exposure to the sterilization procedure, the indicators were removed from the sterilizer and the inner containers containing the enzyme substrate and nutrient medium were crushed. The indicators were then incubated at 60° C. and examined for fluorescence every hour for 5 hours using a 3M™ ATTEST™ Model 190 Rapid Autoreader, commercially available from 3M Company, St. Paul, Minn. Additionally, spore growth, as indicated by a color change from purple to yellow, was determined visually after 168 hours of incubation.
# (§4) The number of growth positive indicators detected after 168 hours of incubation is recorded in Table 6.
# as §2, with “7.” for “6.”
# as §2, with “8.” for “6.”, “chamber. […]” for “chamber.”
# [2] = tested on: Bacillus stearothermophilus spores; experiment: Spore outgrowth (color change) of indicators after hydrogen peroxide plasma sterilization; assay type: cell-based; settings: 1–22 min diffusion
# Experimental: as §1, §2, §3, §4
# as §2, with “7.” for “6.”
# as §2, with “8.” for “6.”, “chamber. […]” for “chamber.”
# [3] = tested on: enzyme associated with Bacillus stearothermophilus spores; experiment: Rapid enzyme fluorescence readout of dual rapid readout indicators after prevacuum steam sterilization; assay type: biochemical; settings: 4-pulse prevacuum steam 121° C.
# Experimental: (§5) The indicators prepared for the Examples were dual rapid readout indicators that provided both a rapid, enzyme-based efficacy test and a confirmatory spore outgrowth test. Spores coated on the carrier strip 16 served as the source of active enzyme whose activity was measured by the rapid enzyme test. These same spores were then incubated in the spore outgrowth portion of the test.
# (§6) Bacillus stearothermophilus, commercially available as ATCC 7953 from American Type Culture Collection, Rockville, Md., was grown overnight (16 hours) at 58° C. in tryptic soy broth. This culture was used to inoculate the surface of agar plates consisting of 8 g/l nutrient broth, 4 g/l yeast extract, 0.1 g/l manganese chloride and 20 g/l agar at pH 7.2. Plates were incubated at 58° C. for 72 hours. Spores were scraped from the plates and suspended in sterile distilled water. The spores were separated from the vegetative debris by centrifuging the suspension at 7000 rpm and 4° C. for 20 minutes. The supernatant was poured off and the spores were resuspended in sterile distilled water. The cleaning procedure was repeated several times. After the final wash, the spores were suspended in sterile distilled water, at a concentration of approximately 1×10^8 spores per milliliter.
# (§7) The spores were then treated with the chemicals identified in Tables 1–5. All chemicals tested were obtained from commercial sources. The spores were centrifuged at 6000 rpm for 10 minutes. The supernatant and coating chemical mixtures were heated at 60–80° C. for several minutes and vortexed to get the material into solution. The spores were then mixed into the sterilant-resistant chemical solution. The sterilant-resistant chemical solution was applied to 5×25 mm, 591 A paper strips (Schleicher & Schuell, Inc., Keene, N.H.) by pipetting 10–15 microliters to each strip for a final population of about 1×10^6 spores per strip. The strips were dried 16 hours at 37° C.
# (§8) The treated spore strips were placed on the bottom of the outer container 12 of the indicator 10 and a barrier was inserted between the spore strip 16 and the inner container 18, which contained enzyme substrate. A […] ( 11/16 inch) disc of polypropylene blown microfiber material, with a weight of 200 g/m^2, commercially available as “THINSULATE™ 200-B brand Thermal Insulation” from 3M Company, St. Paul, Minn., was used as the barrier. The inner container 18 contained 0.67 ml nutrient medium, consisting of 17 g of a bacteriological peptone and a 0.17 g/l of L-alanine, as well as 0.1 g 4-methylumbelliferyl-alpha-D-glucoside, commercially available from Sigma Chemical Company, St. Louis, Mo., dissolved in 200 microliters of N,N-dimethylformamide, and 0.03 g bromocresol purple pH indicator dye, per liter of water. The pH of the enzyme substrate and nutrient medium solution was adjusted to 7.6 with 0.1N sodium hydroxide.
# (§9) Sterilization indicators were made as described above with each of the chemicals and concentrations described in Table 1. Control indicators were made using untreated spores. The indicators were placed in metal instrument trays and exposed at 121° C. in a Getinge Steam Sterilizer (Getinge International, Inc., 1100 Towbin Ave., Lakewood, N.J.) using a 4-pulse prevacuum cycle at 121° C. with a vacuum level of 0.075–0.085 bar and a steam pulse to 1.00 bar for each pulse. Indicators were exposed in the sterilizer for between 7 and 13 minutes. This cycle is depicted in the time-pressure diagram in FIG. 5. After exposure the inner containers containing the enzyme substrate and nutrient medium were crushed and the indicators were incubated at 60° C. The indicators were examined for fluorescence using a 3M™ ATTEST™ Model 190 Rapid Autoreader, commercially available from 3M Company, St. Paul, Minn. Additionally, spore growth, as indicated by a color change from purple to yellow, was determined visually after 168 hours of incubation at 60° C. […]
# [4] = tested on: Bacillus stearothermophilus spores; experiment: Spore outgrowth (color change) of indicators after prevacuum steam sterilization; assay type: cell-based; settings: 4-pulse prevacuum steam 121° C.
# Experimental: as §5, §6, §7, §8, §9
# [5] = Example 4, 50 mg/ml coating, 7–18 min
# [6] = Example 4, 100 mg/ml coating, 7–18 min
# [7] = Example 5, 50 mg/ml coating, 7–13 min
# [8] = Example 5, 100 mg/ml coating, 7–13 min
substance,measurement,setting,value
Alkyl Polyglucoside,FLUORESCENCE - PERCENT POSITIVE 1 HR,"[1]; Example 8, 20 mg/ml coating",0%
same,FLUORESCENCE - PERCENT POSITIVE 2 HR,"[1]; Example 8, 20 mg/ml coating",0%
same,FLUORESCENCE - PERCENT POSITIVE 3 HR,"[1]; Example 8, 20 mg/ml coating",0%
same,FLUORESCENCE - PERCENT POSITIVE 4 HR,"[1]; Example 8, 20 mg/ml coating",0%
same,FLUORESCENCE - PERCENT POSITIVE 5 HR,"[1]; Example 8, 20 mg/ml coating",0%
same,FLUORESCENCE - PERCENT POSITIVE 1 HR,"[1]; Example 8, 40 mg/ml coating",0%
same,FLUORESCENCE - PERCENT POSITIVE 2 HR,"[1]; Example 8, 40 mg/ml coating",0%
same,FLUORESCENCE - PERCENT POSITIVE 3 HR,"[1]; Example 8, 40 mg/ml coating",0%
same,FLUORESCENCE - PERCENT POSITIVE 4 HR,"[1]; Example 8, 40 mg/ml coating",0%
same,FLUORESCENCE - PERCENT POSITIVE 5 HR,"[1]; Example 8, 40 mg/ml coating",0%
same,NO. GROWTH POSITIVE 168 HR,"[2]; Example 8, 20 mg/ml coating",5
same,NO. GROWTH POSITIVE 168 HR,"[2]; Example 8, 40 mg/ml coating",1
Decaglyceryl Monolaurate,accuracy of sterilization indicators compared to indicators made with untreated spores,[3],improved
same,FLUORESCENCE - PERCENT POSITIVE 1 HR,[3]; [5],0%
same,FLUORESCENCE - PERCENT POSITIVE 2 HR,[3]; [5],27.3%
same,FLUORESCENCE - PERCENT POSITIVE 3 HR,[3]; [5],72.7%
same,FLUORESCENCE - PERCENT POSITIVE 4 HR,[3]; [5],72.7%
same,FLUORESCENCE - PERCENT POSITIVE 1 HR,[3]; [6],87%
same,FLUORESCENCE - PERCENT POSITIVE 2 HR,[3]; [6],100.0%
same,FLUORESCENCE - PERCENT POSITIVE 3 HR,[3]; [6],100.0%
same,FLUORESCENCE - PERCENT POSITIVE 4 HR,[3]; [6],100.0%
same,NO. GROWTH POSITIVE 168 HR,[4]; [5],11
same,NO. GROWTH POSITIVE 168 HR,[4]; [6],23
polyoxyethylene (60) glycerol monostearate [POE(60) Glycerol Monostearate],accuracy of sterilization indicators compared to indicators made with untreated spores,[1]; 2–3 hours after exposure,improved
same,FLUORESCENCE - PERCENT POSITIVE 1 HR,"[1]; Example 7, 50 mg/ml coating",100%
same,FLUORESCENCE - PERCENT POSITIVE 2 HR,"[1]; Example 7, 50 mg/ml coating",100%
same,FLUORESCENCE - PERCENT POSITIVE 3 HR,"[1]; Example 7, 50 mg/ml coating",100%
same,FLUORESCENCE - PERCENT POSITIVE 4 HR,"[1]; Example 7, 50 mg/ml coating",100%
same,FLUORESCENCE - PERCENT POSITIVE 5 HR,"[1]; Example 7, 50 mg/ml coating",100%
same,FLUORESCENCE - PERCENT POSITIVE 1 HR,"[1]; Example 7, 100 mg/ml coating",57.1%
same,FLUORESCENCE - PERCENT POSITIVE 2 HR,"[1]; Example 7, 100 mg/ml coating",57.1%
same,FLUORESCENCE - PERCENT POSITIVE 3 HR,"[1]; Example 7, 100 mg/ml coating",71.4%
same,FLUORESCENCE - PERCENT POSITIVE 4 HR,"[1]; Example 7, 100 mg/ml coating",71.4%
same,FLUORESCENCE - PERCENT POSITIVE 5 HR,"[1]; Example 7, 100 mg/ml coating",71.4%
same,NO. GROWTH POSITIVE 168 HR,"[2]; Example 7, 50 mg/ml coating",7
same,NO. GROWTH POSITIVE 168 HR,"[2]; Example 7, 100 mg/ml coating",7
Decaglyceryl Monoisostearate,accuracy of sterilization indicators compared to indicators made with untreated spores,[3],improved
same,FLUORESCENCE - PERCENT POSITIVE 1 HR,[3]; [7],33.3%
same,FLUORESCENCE - PERCENT POSITIVE 2 HR,[3]; [7],77.8%
same,FLUORESCENCE - PERCENT POSITIVE 3 HR,[3]; [7],88.9%
same,FLUORESCENCE - PERCENT POSITIVE 4 HR,[3]; [7],88.9%
same,FLUORESCENCE - PERCENT POSITIVE 1 HR,[3]; [8],37.5%
same,FLUORESCENCE - PERCENT POSITIVE 2 HR,[3]; [8],100%
same,FLUORESCENCE - PERCENT POSITIVE 3 HR,[3]; [8],100%
same,FLUORESCENCE - PERCENT POSITIVE 4 HR,[3]; [8],100%
same,NO. GROWTH POSITIVE 168 HR,[4]; [7],9
same,NO. GROWTH POSITIVE 168 HR,[4]; [8],8
